Reference: ChEMBL document CHEMBL4043168, “The design and SAR of a novel series of 2-aminopyridine based LRRK2 inhibitors” (Bioorg Med Chem Lett, 2017)

Assays:
[1] = target: Mitogen-activated protein kinase kinase kinase 7 (Homo sapiens) (UniProt O43318); experiment: Inhibition of TAK1 conserved Lys2 (DLKPPNLLLVAGGTVLK) in human PBMC at 0.1 uM
[2] = target: T1, Serine/threonine-protein kinase ULK3 (Homo sapiens) (UniProt Q6PHR2); experiment: Inhibition of ULK3 conserved Lys2 (NISHLDLKPQNILLSSLEKPHLK) in human PBMC at 1 uM
T1 sequence (whole entry): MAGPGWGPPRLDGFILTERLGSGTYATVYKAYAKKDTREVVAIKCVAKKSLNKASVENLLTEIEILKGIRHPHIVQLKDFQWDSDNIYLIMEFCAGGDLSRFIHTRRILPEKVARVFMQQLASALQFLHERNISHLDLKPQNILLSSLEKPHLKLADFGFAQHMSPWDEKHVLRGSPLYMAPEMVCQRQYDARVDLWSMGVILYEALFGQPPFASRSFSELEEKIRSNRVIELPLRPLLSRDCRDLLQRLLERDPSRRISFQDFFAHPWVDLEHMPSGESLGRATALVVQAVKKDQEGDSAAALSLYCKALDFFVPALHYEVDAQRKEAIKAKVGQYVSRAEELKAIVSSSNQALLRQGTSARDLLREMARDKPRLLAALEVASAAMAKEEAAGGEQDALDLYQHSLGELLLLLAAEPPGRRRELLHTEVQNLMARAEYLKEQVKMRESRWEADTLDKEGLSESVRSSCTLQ

[3] = target: Eukaryotic elongation factor 2 kinase (Homo sapiens) (UniProt O00418); experiment: Inhibition of eEF2K ATP binding site (YIKYNSNSGFVR) in human PBMC at 1 uM
[4] = target: 5'-AMP-activated protein kinase catalytic subunit alpha-1 (Homo sapiens) (UniProt Q13131); experiment: Inhibition of AMPKa1 labeling at conserved Lys1 (VAVKILNR) in human PBMC at 1 uM
[5] = target: Mitogen-activated protein kinase kinase kinase 4 (Homo sapiens) (UniProt Q9Y6R4); experiment: Inhibition of MAP3K4 conserved Lys2 (DIKGANIFLTSSGLIK) in human PBMC at 0.1 uM
[6] = target: Leucine-rich repeat serine/threonine-protein kinase 2 (Homo sapiens, UniProt Q5S007); experiment: Inhibition of LRRK2 conserved Lys2 (DLKPHNVLLFTLYPNAAIIAK) in human PBMC at 0.1 uM
Chain of Leucine-rich repeat serine/threonine-protein kinase 2 (Q5S007 whole entry): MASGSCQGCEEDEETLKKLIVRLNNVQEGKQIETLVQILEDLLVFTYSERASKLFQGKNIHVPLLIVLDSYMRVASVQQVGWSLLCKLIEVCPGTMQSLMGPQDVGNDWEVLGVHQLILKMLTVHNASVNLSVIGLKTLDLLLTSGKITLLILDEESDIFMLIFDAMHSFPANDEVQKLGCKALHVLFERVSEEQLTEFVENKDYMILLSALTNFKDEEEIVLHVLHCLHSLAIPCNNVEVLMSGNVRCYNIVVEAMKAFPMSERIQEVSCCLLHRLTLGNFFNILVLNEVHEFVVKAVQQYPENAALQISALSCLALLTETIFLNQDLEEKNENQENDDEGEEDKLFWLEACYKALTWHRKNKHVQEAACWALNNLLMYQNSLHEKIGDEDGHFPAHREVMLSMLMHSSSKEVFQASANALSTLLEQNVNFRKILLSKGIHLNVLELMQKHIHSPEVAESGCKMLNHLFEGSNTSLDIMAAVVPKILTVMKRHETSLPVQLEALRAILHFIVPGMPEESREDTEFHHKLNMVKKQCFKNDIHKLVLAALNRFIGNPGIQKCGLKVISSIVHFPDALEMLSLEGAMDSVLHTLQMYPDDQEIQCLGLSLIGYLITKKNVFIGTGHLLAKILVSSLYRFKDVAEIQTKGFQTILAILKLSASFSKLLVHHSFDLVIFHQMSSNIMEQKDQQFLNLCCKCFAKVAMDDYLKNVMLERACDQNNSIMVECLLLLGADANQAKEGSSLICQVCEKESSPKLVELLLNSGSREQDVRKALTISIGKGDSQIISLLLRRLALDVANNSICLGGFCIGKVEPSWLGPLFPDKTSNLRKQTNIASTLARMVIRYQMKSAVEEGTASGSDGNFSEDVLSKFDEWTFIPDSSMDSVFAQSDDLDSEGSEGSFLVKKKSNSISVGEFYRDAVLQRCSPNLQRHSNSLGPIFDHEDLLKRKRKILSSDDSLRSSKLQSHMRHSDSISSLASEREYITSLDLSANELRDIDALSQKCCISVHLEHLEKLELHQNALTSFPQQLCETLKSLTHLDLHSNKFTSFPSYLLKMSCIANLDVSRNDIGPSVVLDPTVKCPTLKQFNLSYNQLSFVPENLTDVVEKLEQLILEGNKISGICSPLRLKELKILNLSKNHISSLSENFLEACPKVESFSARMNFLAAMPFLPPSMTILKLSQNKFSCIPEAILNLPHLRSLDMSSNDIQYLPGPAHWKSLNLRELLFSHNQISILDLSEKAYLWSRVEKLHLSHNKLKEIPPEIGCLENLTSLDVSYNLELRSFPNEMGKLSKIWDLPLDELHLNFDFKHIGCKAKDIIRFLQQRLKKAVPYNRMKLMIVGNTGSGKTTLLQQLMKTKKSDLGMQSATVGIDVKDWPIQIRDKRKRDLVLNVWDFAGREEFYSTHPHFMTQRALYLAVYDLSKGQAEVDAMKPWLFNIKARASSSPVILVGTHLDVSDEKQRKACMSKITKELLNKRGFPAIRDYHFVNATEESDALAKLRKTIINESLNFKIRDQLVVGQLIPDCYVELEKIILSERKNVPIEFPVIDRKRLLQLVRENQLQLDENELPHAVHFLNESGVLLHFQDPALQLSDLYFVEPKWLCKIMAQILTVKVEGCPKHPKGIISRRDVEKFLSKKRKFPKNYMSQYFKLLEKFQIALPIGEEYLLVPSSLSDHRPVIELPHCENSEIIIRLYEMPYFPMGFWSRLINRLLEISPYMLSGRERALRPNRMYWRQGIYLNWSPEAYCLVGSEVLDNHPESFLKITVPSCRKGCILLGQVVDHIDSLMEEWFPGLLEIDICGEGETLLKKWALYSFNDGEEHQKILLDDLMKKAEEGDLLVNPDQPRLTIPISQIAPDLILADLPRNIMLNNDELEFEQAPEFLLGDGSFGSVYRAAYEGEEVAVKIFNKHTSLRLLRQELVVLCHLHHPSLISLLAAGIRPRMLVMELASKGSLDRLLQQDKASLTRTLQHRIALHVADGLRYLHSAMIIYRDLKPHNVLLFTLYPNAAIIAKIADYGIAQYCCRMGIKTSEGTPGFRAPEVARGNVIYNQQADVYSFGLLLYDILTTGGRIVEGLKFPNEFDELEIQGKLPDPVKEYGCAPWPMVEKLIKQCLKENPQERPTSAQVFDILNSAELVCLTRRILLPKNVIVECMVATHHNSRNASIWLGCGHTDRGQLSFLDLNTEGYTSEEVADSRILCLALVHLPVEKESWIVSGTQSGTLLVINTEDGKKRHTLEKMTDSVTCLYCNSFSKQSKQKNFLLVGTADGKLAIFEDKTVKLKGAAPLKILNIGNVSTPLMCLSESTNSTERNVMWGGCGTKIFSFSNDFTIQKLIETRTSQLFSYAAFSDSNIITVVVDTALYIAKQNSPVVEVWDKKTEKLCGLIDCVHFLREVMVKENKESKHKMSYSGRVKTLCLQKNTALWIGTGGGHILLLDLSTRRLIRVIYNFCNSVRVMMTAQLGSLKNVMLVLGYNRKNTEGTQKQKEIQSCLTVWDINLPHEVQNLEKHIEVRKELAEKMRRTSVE

[7] = target: Ribosomal protein S6 kinase alpha-1 (Homo sapiens) (UniProt Q15418); experiment: Inhibition of RSK1 conserved Lys2 (DLKPENILLDEEGHIK) in human PBMC at 0.1 uM
[8] = target: Ribosomal protein S6 kinase alpha-5 (Homo sapiens) (UniProt O75582); experiment: Inhibition of MSK1 domain1 conserved Lys2 (DIKLENILLDSNGHVVLTDFGLSK) in human PBMC at 0.1 uM
Chain of Ribosomal protein S6 kinase alpha-5 (Homo sapiens) (O75582 whole entry, looked up, the tested form may be a part): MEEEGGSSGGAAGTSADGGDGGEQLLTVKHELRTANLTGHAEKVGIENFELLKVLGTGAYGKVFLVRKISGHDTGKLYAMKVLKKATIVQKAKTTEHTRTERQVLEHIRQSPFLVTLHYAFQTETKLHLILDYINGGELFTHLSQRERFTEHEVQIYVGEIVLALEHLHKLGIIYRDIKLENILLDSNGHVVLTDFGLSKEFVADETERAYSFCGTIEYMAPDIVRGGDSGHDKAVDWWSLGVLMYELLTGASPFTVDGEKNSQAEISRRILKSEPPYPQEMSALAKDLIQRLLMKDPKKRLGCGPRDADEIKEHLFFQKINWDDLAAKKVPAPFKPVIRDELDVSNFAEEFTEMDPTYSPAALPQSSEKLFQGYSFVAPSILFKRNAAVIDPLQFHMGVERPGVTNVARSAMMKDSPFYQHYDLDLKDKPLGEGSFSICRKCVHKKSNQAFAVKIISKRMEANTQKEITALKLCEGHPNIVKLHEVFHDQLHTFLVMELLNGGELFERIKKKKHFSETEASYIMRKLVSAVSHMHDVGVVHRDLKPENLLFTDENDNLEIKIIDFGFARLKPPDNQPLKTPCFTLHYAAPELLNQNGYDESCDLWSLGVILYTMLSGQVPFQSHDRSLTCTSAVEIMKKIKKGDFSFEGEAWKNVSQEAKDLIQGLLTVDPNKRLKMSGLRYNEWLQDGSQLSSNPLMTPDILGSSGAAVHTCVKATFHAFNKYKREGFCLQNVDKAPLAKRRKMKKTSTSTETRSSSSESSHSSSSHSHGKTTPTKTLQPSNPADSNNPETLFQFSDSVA

[9] = organism: Homo sapiens; experiment: Inhibition of p70S6K conserved Lys2 (DLKPENIMLNHQGHVK) in human PBMC at 0.1 uM
[10] = target: Tyrosine-protein kinase Fgr (Homo sapiens) (UniProt P09769); experiment: Inhibition of FGR conserved Lys1 (LIKDDEYNPCQGSKFPIK) in human PBMC at 0.1 uM
[11] = target: Serine/threonine-protein kinase WNK1 (Homo sapiens) (UniProt Q9H4A3); experiment: Inhibition of Wnk1 activation Loop (IGDLGLATLKR) in human PBMC at 1 uM
[12] = target: Tyrosine-protein kinase ABL1 (Homo sapiens) (UniProt P00519); experiment: Inhibition of ABL labeling at activation Loop (LMTGDTYTAHAGAKFPIK) in human PBMC at 1 uM
Chain of Tyrosine-protein kinase ABL1 (Homo sapiens) (P00519 whole entry): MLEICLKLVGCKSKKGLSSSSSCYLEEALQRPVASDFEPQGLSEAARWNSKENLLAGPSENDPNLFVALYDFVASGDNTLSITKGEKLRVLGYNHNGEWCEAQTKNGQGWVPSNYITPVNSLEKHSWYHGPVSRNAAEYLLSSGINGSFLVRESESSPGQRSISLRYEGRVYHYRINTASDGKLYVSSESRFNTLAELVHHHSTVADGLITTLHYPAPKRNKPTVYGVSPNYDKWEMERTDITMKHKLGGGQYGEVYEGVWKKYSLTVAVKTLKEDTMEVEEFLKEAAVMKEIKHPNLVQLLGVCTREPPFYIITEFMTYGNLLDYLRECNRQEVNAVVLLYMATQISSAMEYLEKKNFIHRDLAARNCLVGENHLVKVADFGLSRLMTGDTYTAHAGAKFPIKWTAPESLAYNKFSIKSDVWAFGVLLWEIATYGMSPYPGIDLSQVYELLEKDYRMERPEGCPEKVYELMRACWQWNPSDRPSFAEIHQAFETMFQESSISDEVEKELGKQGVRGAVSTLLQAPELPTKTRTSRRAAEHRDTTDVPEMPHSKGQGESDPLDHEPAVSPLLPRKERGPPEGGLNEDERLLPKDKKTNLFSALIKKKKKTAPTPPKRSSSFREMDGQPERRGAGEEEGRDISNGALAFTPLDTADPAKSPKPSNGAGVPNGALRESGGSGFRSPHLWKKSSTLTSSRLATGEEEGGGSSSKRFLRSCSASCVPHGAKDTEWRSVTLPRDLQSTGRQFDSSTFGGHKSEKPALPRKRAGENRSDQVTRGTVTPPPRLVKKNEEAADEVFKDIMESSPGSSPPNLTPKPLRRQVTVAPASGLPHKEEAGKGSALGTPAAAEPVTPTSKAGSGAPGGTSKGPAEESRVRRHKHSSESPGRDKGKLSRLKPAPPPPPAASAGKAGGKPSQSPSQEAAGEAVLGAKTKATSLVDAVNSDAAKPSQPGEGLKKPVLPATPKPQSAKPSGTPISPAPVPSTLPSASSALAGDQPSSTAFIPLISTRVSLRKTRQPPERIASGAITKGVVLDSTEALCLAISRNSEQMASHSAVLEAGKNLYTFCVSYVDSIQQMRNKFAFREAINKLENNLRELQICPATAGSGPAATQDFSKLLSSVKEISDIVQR

[13] = target: Proto-oncogene tyrosine-protein kinase Src (Homo sapiens) (UniProt P12931); experiment: Inhibition of SRC ATP binding site (QGAKFPIKWTAPEAALYGR) in human PBMC at 0.1 uM
[14] = test system: MDR1; experiment: Apparent permeability in MDCK cells harboring MDR1; format: ADME, cell-based, Canis lupus familiaris; conditions: dog
[15] = target: T2, Mitogen-activated protein kinase kinase kinase 5 (Homo sapiens) (UniProt Q99683); experiment: Inhibition of MAP3K5 conserved Lys1 (IAIKEIPER) in human PBMC at 0.1 uM
T2 sequence (whole entry): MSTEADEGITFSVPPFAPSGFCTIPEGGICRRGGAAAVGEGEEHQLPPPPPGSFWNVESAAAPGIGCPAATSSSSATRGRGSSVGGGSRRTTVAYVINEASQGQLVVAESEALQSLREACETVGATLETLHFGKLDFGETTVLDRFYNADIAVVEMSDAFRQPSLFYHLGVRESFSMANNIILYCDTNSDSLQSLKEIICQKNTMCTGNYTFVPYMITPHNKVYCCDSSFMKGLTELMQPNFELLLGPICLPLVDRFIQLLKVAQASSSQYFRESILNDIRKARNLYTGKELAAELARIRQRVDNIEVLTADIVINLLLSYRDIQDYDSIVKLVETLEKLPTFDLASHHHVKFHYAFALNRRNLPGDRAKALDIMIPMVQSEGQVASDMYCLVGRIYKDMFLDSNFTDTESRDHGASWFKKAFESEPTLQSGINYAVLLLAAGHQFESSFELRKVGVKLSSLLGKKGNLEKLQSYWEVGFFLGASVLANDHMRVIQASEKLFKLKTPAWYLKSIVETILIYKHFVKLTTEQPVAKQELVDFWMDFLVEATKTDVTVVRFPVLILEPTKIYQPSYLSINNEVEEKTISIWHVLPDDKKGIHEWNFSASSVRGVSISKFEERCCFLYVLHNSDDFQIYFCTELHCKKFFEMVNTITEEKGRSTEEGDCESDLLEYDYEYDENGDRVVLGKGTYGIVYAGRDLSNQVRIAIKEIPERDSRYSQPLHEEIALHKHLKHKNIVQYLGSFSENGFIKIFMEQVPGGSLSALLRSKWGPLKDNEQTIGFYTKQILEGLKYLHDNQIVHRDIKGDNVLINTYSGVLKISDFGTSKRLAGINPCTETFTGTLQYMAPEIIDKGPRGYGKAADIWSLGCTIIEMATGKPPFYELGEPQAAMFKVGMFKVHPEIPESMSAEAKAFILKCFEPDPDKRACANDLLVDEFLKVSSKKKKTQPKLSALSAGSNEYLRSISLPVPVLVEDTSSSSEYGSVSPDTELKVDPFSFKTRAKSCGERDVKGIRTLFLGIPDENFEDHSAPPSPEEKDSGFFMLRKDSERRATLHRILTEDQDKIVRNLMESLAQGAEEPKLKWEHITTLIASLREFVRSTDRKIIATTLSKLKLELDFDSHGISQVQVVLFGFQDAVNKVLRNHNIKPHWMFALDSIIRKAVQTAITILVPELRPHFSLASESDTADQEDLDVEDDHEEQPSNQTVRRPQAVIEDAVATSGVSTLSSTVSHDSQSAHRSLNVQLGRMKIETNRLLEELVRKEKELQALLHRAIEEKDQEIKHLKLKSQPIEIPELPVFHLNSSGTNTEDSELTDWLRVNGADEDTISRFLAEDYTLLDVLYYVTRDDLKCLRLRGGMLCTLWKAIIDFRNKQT

Chain of Mitogen-activated protein kinase kinase kinase 7 (Homo sapiens) (O43318 whole entry): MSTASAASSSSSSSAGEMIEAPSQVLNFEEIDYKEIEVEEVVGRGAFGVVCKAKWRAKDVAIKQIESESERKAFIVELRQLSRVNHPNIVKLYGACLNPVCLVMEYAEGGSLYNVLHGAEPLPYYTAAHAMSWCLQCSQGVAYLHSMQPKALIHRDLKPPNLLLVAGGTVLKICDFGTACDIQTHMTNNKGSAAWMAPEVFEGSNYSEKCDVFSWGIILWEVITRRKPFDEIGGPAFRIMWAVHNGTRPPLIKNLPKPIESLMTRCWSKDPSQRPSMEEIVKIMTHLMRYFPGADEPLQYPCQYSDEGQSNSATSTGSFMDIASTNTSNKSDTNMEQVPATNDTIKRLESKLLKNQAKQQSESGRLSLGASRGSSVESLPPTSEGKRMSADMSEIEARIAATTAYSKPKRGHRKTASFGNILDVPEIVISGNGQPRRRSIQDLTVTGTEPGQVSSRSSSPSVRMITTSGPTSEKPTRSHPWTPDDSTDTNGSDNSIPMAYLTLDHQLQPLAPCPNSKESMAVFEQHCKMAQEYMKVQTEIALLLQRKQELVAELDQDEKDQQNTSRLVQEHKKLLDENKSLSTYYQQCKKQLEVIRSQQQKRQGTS

Q: Which results are given for CC(C)n1cc(-c2cc(-c3ccc(CN4CCOCC4)cc3)cnc2N)nn1?
A: inhibition [1]: -0.4%; inhibition [2]: 40.8%; inhibition [3]: -6.7%; inhibition [4]: 17.3%; inhibition [5]: 3.8%; inhibition [6]: 8.6%; inhibition [7]: 11.8%; inhibition [8]: 33.6%; inhibition [9]: 25.3%; inhibition [10]: 9.6%; inhibition [11]: 21.9%; inhibition [12]: 34.8%; inhibition [13]: -4.4%; Papp [14]: 26.3 ×10⁻⁶ cm/s; inhibition [15]: -0.5%
